Values of other authors in patent US8071607B2, “Mnk1 or Mnk2 inhibitors” (Boehringer Ingelheim International GmbH, priority 2004, dated 2011).

Legend:
human Mnk2 protein = human Mnk2 protein (Homo sapiens, UniProt Q9HBH9); settings: described in WO 02/103361
Mnk1 = Mnk1 (Homo sapiens, UniProt Q9BUB5); settings: cell culture cells transfected with Mnk1
Mnk2 (Mnk2a or Mnk2b) = settings: cell culture cells transfected with Mnk2 (Mnk2a or Mnk2b)

Chain of Mnk1 (Q9BUB5 whole entry): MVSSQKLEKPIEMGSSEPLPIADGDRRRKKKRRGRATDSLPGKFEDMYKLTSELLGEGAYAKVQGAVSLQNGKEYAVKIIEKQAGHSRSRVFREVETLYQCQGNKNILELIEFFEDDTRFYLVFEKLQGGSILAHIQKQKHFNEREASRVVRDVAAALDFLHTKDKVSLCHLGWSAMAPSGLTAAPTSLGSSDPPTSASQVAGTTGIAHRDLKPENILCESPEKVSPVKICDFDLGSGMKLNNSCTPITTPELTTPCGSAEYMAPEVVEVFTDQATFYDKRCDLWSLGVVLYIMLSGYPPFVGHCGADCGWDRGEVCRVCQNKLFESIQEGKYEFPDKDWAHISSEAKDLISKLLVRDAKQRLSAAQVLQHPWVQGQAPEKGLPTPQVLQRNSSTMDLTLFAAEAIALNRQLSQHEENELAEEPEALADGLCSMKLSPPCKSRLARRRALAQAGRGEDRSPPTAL
Chain of human Mnk2 protein (Q9HBH9 whole entry): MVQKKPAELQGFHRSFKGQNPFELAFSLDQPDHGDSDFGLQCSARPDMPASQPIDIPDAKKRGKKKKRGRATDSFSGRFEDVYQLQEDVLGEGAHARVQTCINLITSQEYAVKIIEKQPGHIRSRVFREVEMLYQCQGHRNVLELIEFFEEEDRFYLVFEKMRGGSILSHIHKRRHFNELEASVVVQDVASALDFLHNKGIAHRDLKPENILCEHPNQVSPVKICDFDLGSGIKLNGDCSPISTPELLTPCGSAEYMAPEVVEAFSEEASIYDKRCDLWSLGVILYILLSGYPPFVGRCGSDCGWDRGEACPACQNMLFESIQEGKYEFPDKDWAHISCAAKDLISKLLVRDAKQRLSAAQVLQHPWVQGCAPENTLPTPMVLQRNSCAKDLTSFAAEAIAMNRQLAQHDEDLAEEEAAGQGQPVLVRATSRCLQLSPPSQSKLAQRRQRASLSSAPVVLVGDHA

Row | Compound | binding to the human Mnk2 protein (human Mnk2 protein) | phosphorylated eIF4E (Mnk1) | phosphorylated eIF4E (Mnk2 (Mnk2a or Mnk2b))
1 | COC(=O)c1ccc(O)cc1 [4-hydroxybenzoic acid methyl ester] | binds | – | –
2 | Nc1ncnc2n[nH]c(Nc3ccc(F)cc3)c12 [CGP57380] | – | strong reduction | strong reduction
